Marks after values point to notes of the source that are not given here.
What was measured:
[1] = system: human esophageal cancer ECA109 transplanted tumor; test: Example 8: tumor growth in ECA109 transplanted tumor model; assay type: in vivo, nude mice; details: DDP 5 mg/kg i.p. QW×4
Description: The assay animals, calculation of tumor volume (TV), end of assay, data recording, calculation formula of tumor growth inhibition rate TGI (%), and statistical analysis method were the same as those in Example 3; the preparation of the administration formulation of the compound of formula (I) was the same as that in Example 5. An appropriate amount of CMC-Na solid was weighed, and an appropriate volume of deionized water was firstly added. The mixture was vortexed and stirred until the solid was completely dispersed and evenly distributed, to give a 0.5% CMC-Na aqueous solution, which was stored at 2 to 8° C. in a refrigerator. An appropriate amount of DDP was weighed and put into a glass bottle, and an appropriate amount of physiological saline was added to the bottle. […] This solution was prepared before each administration. Human esophageal cancer cells ECA109 were obtained from the Cell Bank of Wuhan University (CCTCC, cryopreserved in liquid nitrogen in the laboratory). […] The cells were pipetted with a pipette to disperse them evenly, and the cells were put into a 50-mL centrifuge tube, which was placed in an ice box. A 1-mL syringe was used to draw the cell suspension, which was injected subcutaneously into the axilla of the front right limb of a […]. Each animal was inoculated with 200 μL (1.0×10^7 cells/mouse) to establish an ECA109 transplanted tumor model in nude mice. After the inoculation, the animal status and tumor growth were regularly observed, and the tumor diameter was measured using an electronic vernier caliper. The data were input into an Excel spreadsheet to calculate the tumor volume. When the tumor volume reached 100 to 300 mm^3, animals in good health and with similar tumor volumes were selected and divided into groups using randomized block method. The day of grouping was regarded as the first day of the assay (D1). After the start of the assay, the tumor diameter was measured twice a week, the tumor volume was calculated, and the animal body weight was also weighed and recorded. [table]

[2] = Example 7: body weight of NCI-N87 tumor-bearing nude mice; assay type: in vivo; details: DDP 4/2/1/4 mg/kg IP
[3] = Solubility of the compound in organic solvents; assay type: physicochemical; details: organic solvents (DMSO and isopropyl alcohol 3:7 selected)
Procedure: The containers with DMSO and isopropyl alcohol were opened in a biological safety cabinet. A 15 ml centrifuge tube was taken, and 3 ml of DMSO and 7 ml of isopropyl alcohol were added to make a mixed solvent. The molecular weight of the compound of formula (I) is 678.22 g/mol. 40.69 mg of an original drug of the compound of formula (I) was weighed, and 4 ml of the mixed solvent was added. The mixture was mixed well by pipetting. […] The solution was diluted according to the required concentration when being used.

[4] = system: ICR mice; test: Example 6: repeated gavage administration toxicity for 2 weeks; assay type: in vivo
Description: The compound of formula (I) was gavagely administered continuously to ICR mice for 14 days, to evaluate the nature, degree, and time-effect relationship of the toxic reactions that the compound of formula (I) may cause, and to provide reference information for the subsequent research.
Preparation of the administration formulation of the test sample in each dosage group: The preparation of the test sample was the same as that in Example 5. When the test sample was used, a final volume mark was marked on a container, and a required amount of the test sample was weighed (weighing weight of the test sample=theoretical dosage/conversion factor) into a container. An appropriate amount of solvent was firstly added, and the mixture was stirred and mixed thoroughly, and sonicated if necessary. The solvent was further added to the final volume mark to dilute and mix evenly, to give a visually uniform formulation, which was verified by the methodology. […] The administration formulation of the test sample with a concentration range of 0.01 mg/mL to 60 mg/mL was stable within 8 days when being stored airtightly at 2° C. to 8
Route of Administration: Oral Gavage
Administered once a day; while maintaining the same administration period every day.
Administered continuously for 14 days
The dosage was calculated based on the latest animal body weight.
The administration formulation of the test sample was stirred at room temperature for at least 10 minutes, and suspended uniformly with visual inspection before the administration. The administration formulation of the test sample was required to be continually stirred during the administration.
Observation indicators: observation of general physical signs, detailed clinical observation, body weight, and food intake were included.

[5] = 100 mg/kg dosage group, surviving animals

In the case of N.N.[Cl][Pt][Cl] [DDP, cisplatin], the Mean tumor volume ([1]; D1) is reported as 193 ± 9 mm^3, the Mean tumor volume ([1]; D5) is reported as 204 ± 5 mm^3 and the “tumor growth inhibition rate (TGI)” value ([1]; D5) is reported as “(64%)”. For the same molecule, the Mean tumor volume ([1]; D8) was 203 ± 11** mm^3, the “tumor growth inhibition rate (TGI)” value ([1]; D8) was “(87%)” and the Mean tumor volume ([1]; D12) was 215 ± 10** mm^3. For the same molecule, the “tumor growth inhibition rate (TGI)” value ([1]; D12) was “(79%)”, the Mean tumor volume ([1]; D15) was 224 ± 8** mm^3 and the “tumor growth inhibition rate (TGI)” value ([1]; D15) was “(79%)”. For the same molecule, the Mean tumor volume ([1]; D19) was 247 ± 8** mm^3, the “tumor growth inhibition rate (TGI)” value ([1]; D19) was “(67%)” and the Mean tumor volume ([1]; D22) was 259 ± 8** mm^3. For the same molecule, the “tumor growth inhibition rate (TGI)” value ([1]; D22) was “(63%)”, the Mean tumor volume ([1]; D26) was 276 ± 9** mm^3 and the “tumor growth inhibition rate (TGI)” value ([1]; D26) was “(58%)”. The Mean tumor volume ([1]; D29) was 285 ± 9** mm^3, the “tumor growth inhibition rate (TGI)” value ([1]; D29) was “(59%)” and the Mean tumor volume ([1]; D33) was 259 ± 12** mm^3. The “tumor growth inhibition rate (TGI)” value ([1]; D33) was “(73%)”, the Mean tumor volume ([1]; D36) was 292 ± 11** mm^3 and the “tumor growth inhibition rate (TGI)” value ([1]; D36) was “(60%)”. The Animal body weight ([2]; D12) was 18.6 ± 0.5 g, the Animal body weight ([2]; D16) was 17.9 ± 0.3 g and the “body weight loss rate” value ([2]; D16) was 3.9%. The Animal body weight ([2]; D19) was 18.0 ± 0.4 g, the “body weight loss rate” value ([2]; D19) was 3.3% and the Animal body weight ([2]; D23) was 16.9 ± 0.5 g. For the same molecule, the “body weight loss rate” value ([2]; D23) was 9.2%, the Animal body weight ([2]; D26) was 17.9 ± 0.5 g and the “body weight loss rate” value ([2]; D26) was 3.4%. For the same molecule, the Animal body weight ([2]; D30) was 17.5 ± 0.3 g, the “body weight loss rate” value ([2]; D30) was 6.0% and the Animal body weight ([2]; D33) was 18.6 ± 0.4 g. For the same molecule, the “body weight loss rate” value ([2]; D33) was 0.090%, the Animal body weight ([2]; D37) was 18.9 ± 0.4 g and the “body weight loss rate” value ([2]; D37) was −2.0%. The Animal body weight ([2]; D40) was 19.2 ± 0.4 g, the “body weight loss rate” value ([2]; D40) was −3.1% and the Animal body weight ([2]; D44) was 18.3 ± 0.3 g. For the same molecule, the “body weight loss rate” value ([2]; D44) was 1.4%.

In the case of COC1=C(OC)C(=O)C(CCCCCCCCCCOC(=O)Cc2c(C)n(C(=O)c3ccc(Cl)cc3)c3ccc(OC)cc23)=C(C)C1=O [compound of formula (I)], the “solubility in organic solvents” value [3] is reported as “easily soluble”, the abnormal reactions ([4]; 25 mg/kg dosage group) is reported as “No abnormal reactions” and the body weight ([4]; 25 mg/kg dosage group) is reported as “increased normally”. For the same molecule, the animals found dead ([4]; 25 mg/kg dosage group, 20 animals per group, gavage once a day, 14 days) was “No animal was found dead”, the abnormal reactions ([4]; 50 mg/kg dosage group) was “No abnormal reactions” and the body weight ([4]; 50 mg/kg dosage group) was “increased normally”. For the same molecule, the animals found dead ([4]; 50 mg/kg dosage group, 20 animals per group, gavage once a day, 14 days) was “No animal was found dead”, the abnormal reactions [4, 5] was “No abnormal reactions” and the body weight [4, 5] was “increased normally”. For the same molecule, the animals found dead ([4]; 100 mg/kg dosage group, 20 animals per group, gavage once a day, 14 days) was 3, the animals found dead ([4]; 300 mg/kg dosage group, 20 animals per group, gavage once a day, 14 days) was 10 and the animals found dead ([4]; 1000 mg/kg dosage group, 20 animals per group, gavage once a day) was 13. The animals found dead ([4]; 1000 mg/kg/d dosage group, from D3 to D6, administration then stopped) was 4.

From US20250270170A1, “2,3-DIMETHOXY-5-METHYL-1,4-BENZOQUINONE ALKYL ALCOHOL DERIVATIVE AND USE THEREOF” (BEIJING ANJIANXI BIO-MEDICAL TECHNOLOGY CO., LTD., priority 2021, published 2025)
